Test results from US20230143604A1, “QW DOSING OF GIP RECEPTOR AGONIST PEPTIDE COMPOUNDS AND USES THEREOF” (TAKEDA PHARMACEUTICAL COMPANY LIMITED, priority 2020, published 2023).
Starred links: 1 amine or outer side, 2 acyl side, 3 side chain; linkers in the order of their positions; H or OH if unused. Non-standard residues stand in square brackets, D forms with d. Residues, ends and D or L forms follow the SMILES beside them. Groups on a side chain read outwards from the residue. *: point of attachment. C20 diacid = O=C(O)CCCCCCCCCCCCCCCCCCC(=O)*; C18 diacid = O=C(O)CCCCCCCCCCCCCCCCC(=O)*; γGlu = O=C(O)[C@H](CCC(=O)[*:2])N[*:1]; NMeY = CN[C@@H](Cc1ccc(O)cc1)C(=O)O; AEEA = NCCOCCOCC(=O)O; Aib = CC(C)(N)C(=O)O

Assay: Solubility in phosphate buffer pH 7.4
Summary of the method: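 3 mg of peptide treated with 100 μL portions of 200 mM phosphate buffer pH 7.4, sonicating/vortexing up to 1 min, with further buffer added until fully dissolved. Solubility then quantified by HPLC.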

[1] = pH 7.4, solubility in phosphate buffer at pH 7.4, 200 mM phosphate buffer pH 7.4

| Compound | solubility (pH 7.4, aqueous buffer, pH 7.4 Phosphate Buffer - Solubility, 200 mM Phosphate buffer pH 7.4) | solubility [1] | solubility (pH 7.4) | solubility (pH 7.4, aqueous buffer) |
| --- | --- | --- | --- | --- |
| CC[C@H](C)[C@H](NC(=O)[C@H](CO)NC(=O)[C@H](Cc1ccc(O)cc1)NC(=O)[C@H](CC(=O)O)NC(=O)[C@H](CO)NC(=O)[C@@H](NC(=O)[C@H](Cc1ccccc1)NC(=O)[C@@H](NC(=O)CNC(=O)[C@H](CCC(=O)O)NC(=O)C(C)(C)NC(=O)[C@H](Cc1ccc(O)cc1)NC)[C@@H](C)O)[C@@H](C)CC)C(=O)N[C@@H](C)C(=O)N[C@@H](CC(C)C)C(=O)N[C@@H](CC(=O)O)C(=O)N[C@@H](CCCNC(=N)N)C(=O)NC(C)(C)C(=O)N[C@@H](C)C(=O)N[C@@H](CCC(N)=O)C(=O)NC(C)(C)C(=O)N[C@@H](CC(N)=O)C(=O)N[C@@H](Cc1ccccc1)C(=O)N[C@H](C(=O)N[C@@H](CC(N)=O)C(=O)N[C@@H](Cc1c[nH]c2ccccc12)C(=O)N[C@@H](CC(C)C)C(=O)N[C@@H](CC(C)C)C(=O)N[C@@H](C)C(=O)N[C@@H](CCCCNC(=O)COCCOCCNC(=O)COCCOCCNC(=O)CC[C@H](NC(=O)CC[C@H](NC(=O)CCCCCCCCCCCCCCCCC(=O)O)C(=O)O)C(=O)O)C(=O)N[C@@H](CO)C(=O)N1CCC[C@H]1C(=O)N[C@@H](CO)C(=O)N[C@@H](CO)C(=O)NCC(=O)N[C@@H](C)C(=O)N1CCC[C@H]1C(=O)N1CCC[C@H]1C(=O)N1CCC[C@H]1C(=O)N[C@@H](CO)C(N)=O)C(C)C [Compound 59] (H-[NMeY][Aib]EGTFISDYSIALDR[Aib]AQ[Aib]NFVNWLLAK([AEEA-AEEA-γGlu-γGlu-C18 diacid])SPSSGAPPPS-NH2) | ≥ 30 mg/mL | ≥ 15 mg/mL |  |  |
| CC[C@H](C)[C@H](NC(=O)[C@H](CO)NC(=O)[C@H](Cc1ccc(O)cc1)NC(=O)[C@H](CC(=O)O)NC(=O)[C@H](CO)NC(=O)[C@@H](NC(=O)[C@H](Cc1ccccc1)NC(=O)[C@@H](NC(=O)CNC(=O)[C@H](CCC(=O)O)NC(=O)C(C)(C)NC(=O)[C@H](Cc1ccc(O)cc1)NC)[C@@H](C)O)[C@@H](C)CC)C(=O)N[C@@H](C)C(=O)N[C@@H](CC(C)C)C(=O)N[C@@H](CC(=O)O)C(=O)N[C@@H](CCCNC(=N)N)C(=O)NC(C)(C)C(=O)N[C@@H](C)C(=O)N[C@@H](CCC(N)=O)C(=O)NC(C)(C)C(=O)N[C@@H](CC(=O)O)C(=O)N[C@@H](Cc1ccccc1)C(=O)N[C@H](C(=O)N[C@@H](CC(N)=O)C(=O)N[C@@H](Cc1c[nH]c2ccccc12)C(=O)N[C@@H](CC(C)C)C(=O)N[C@@H](CC(C)C)C(=O)N[C@@H](C)C(=O)N[C@@H](CCC(N)=O)C(=O)N[C@@H](CCCCNC(=O)COCCOCCNC(=O)COCCOCCNC(=O)CC[C@H](NC(=O)CC[C@H](NC(=O)CCCCCCCCCCCCCCCCC(=O)O)C(=O)O)C(=O)O)C(=O)NCC(=O)O)C(C)C [Compound 61] (H-[NMeY][Aib]EGTFISDYSIALDR[Aib]AQ[Aib]DFVNWLLAQK([AEEA-AEEA-γGlu-γGlu-C18 diacid])G-OH) |  |  | ≥ 15 mg/mL | ≥ 30 mg/mL |
| CC[C@H](C)[C@H](NC(=O)[C@H](Cc1ccccc1)NC(=O)[C@@H](NC(=O)CNC(=O)[C@H](CCC(=O)O)NC(=O)C(C)(C)NC(=O)[C@H](Cc1ccc(O)cc1)NC)[C@@H](C)O)C(=O)N[C@@H](CO)C(=O)N[C@@H](CC(=O)O)C(=O)N[C@@H](Cc1ccc(O)cc1)C(=O)N[C@@H](CO)C(=O)N[C@H](C(=O)NC(C)(C)C(=O)N[C@@H](CC(C)C)C(=O)N[C@@H](CC(=O)O)C(=O)N[C@@H](CCCNC(=N)N)C(=O)NC(C)(C)C(=O)N[C@@H](C)C(=O)N[C@@H](CCC(N)=O)C(=O)NC(C)(C)C(=O)N[C@@H](CC(=O)O)C(=O)N[C@@H](Cc1ccccc1)C(=O)N[C@H](C(=O)N[C@@H](CC(N)=O)C(=O)N[C@@H](Cc1c[nH]c2ccccc12)C(=O)N[C@@H](CC(C)C)C(=O)N[C@@H](CC(C)C)C(=O)N[C@@H](C)C(=O)N[C@@H](CCCCNC(=O)COCCOCCNC(=O)COCCOCCNC(=O)CC[C@H](NC(=O)CC[C@H](NC(=O)CCCCCCCCCCCCCCCCC(=O)O)C(=O)O)C(=O)O)C(=O)N[C@@H](CCCNC(=N)N)C(=O)NCC(=O)O)C(C)C)[C@@H](C)CC [Compound 62] (H-[NMeY][Aib]EGTFISDYSI[Aib]LDR[Aib]AQ[Aib]DFVNWLLAK([AEEA-AEEA-γGlu-γGlu-C18 diacid])RG-OH) |  |  | ≥ 15 mg/mL | ≥ 30 mg/mL |
| CC[C@H](C)[C@H](NC(=O)[C@H](Cc1ccccc1)NC(=O)[C@@H](NC(=O)CNC(=O)[C@H](CCC(=O)O)NC(=O)C(C)(C)NC(=O)[C@H](Cc1ccc(O)cc1)NC)[C@@H](C)O)C(=O)N[C@@H](CO)C(=O)N[C@@H](CC(=O)O)C(=O)N[C@@H](Cc1ccc(O)cc1)C(=O)N[C@@H](CO)C(=O)N[C@H](C(=O)NC(C)(C)C(=O)N[C@@H](CC(C)C)C(=O)N[C@@H](CC(=O)O)C(=O)N[C@@H](CCCNC(=N)N)C(=O)NC(C)(C)C(=O)N[C@@H](C)C(=O)N[C@@H](CCC(N)=O)C(=O)NC(C)(C)C(=O)N[C@@H](CCCCNC(=O)COCCOCCNC(=O)COCCOCCNC(=O)CC[C@H](NC(=O)CC[C@H](NC(=O)CCCCCCCCCCCCCCCCCCC(=O)O)C(=O)O)C(=O)O)C(=O)N[C@@H](Cc1ccccc1)C(=O)N[C@H](C(=O)N[C@@H](CC(N)=O)C(=O)N[C@@H](Cc1c[nH]c2ccccc12)C(=O)N[C@@H](CC(C)C)C(=O)N[C@@H](CC(C)C)C(=O)N[C@@H](C)C(=O)N[C@@H](CCC(N)=O)C(=O)N[C@@H](CCCCN)C(=O)NCC(=O)O)C(C)C)[C@@H](C)CC [Compound 65] (H-[NMeY][Aib]EGTFISDYSI[Aib]LDR[Aib]AQ[Aib]K([AEEA-AEEA-γGlu-γGlu-C20 diacid])FVNWLLAQKG-OH) |  |  | ≥ 15 mg/mL | ≥ 30 mg/mL |
| CC[C@H](C)[C@H](NC(=O)[C@H](Cc1ccccc1)NC(=O)[C@@H](NC(=O)CNC(=O)[C@H](CCC(=O)O)NC(=O)C(C)(C)NC(=O)[C@H](Cc1ccc(O)cc1)NC)[C@@H](C)O)C(=O)N[C@@H](CO)C(=O)N[C@@H](CC(=O)O)C(=O)N[C@@H](Cc1ccc(O)cc1)C(=O)N[C@@H](CO)C(=O)N[C@H](C(=O)NC(C)(C)C(=O)N[C@@H](CC(C)C)C(=O)N[C@@H](CC(=O)O)C(=O)N[C@@H](CCCNC(=N)N)C(=O)NC(C)(C)C(=O)N[C@@H](C)C(=O)N[C@@H](CCC(N)=O)C(=O)NC(C)(C)C(=O)N[C@@H](CCCCNC(=O)COCCOCCNC(=O)COCCOCCNC(=O)CC[C@H](NC(=O)CC[C@H](NC(=O)CCCCCCCCCCCCCCCCC(=O)O)C(=O)O)C(=O)O)C(=O)N[C@@H](Cc1ccccc1)C(=O)N[C@H](C(=O)N[C@@H](CC(N)=O)C(=O)N[C@@H](Cc1c[nH]c2ccccc12)C(=O)N[C@@H](CC(C)C)C(=O)N[C@@H](CC(C)C)C(=O)N[C@@H](C)C(=O)N[C@@H](CCC(N)=O)C(=O)N[C@@H](CCCCN)C(=O)NCC(=O)O)C(C)C)[C@@H](C)CC [Compound 66] (H-[NMeY][Aib]EGTFISDYSI[Aib]LDR[Aib]AQ[Aib]K([AEEA-AEEA-γGlu-γGlu-C18 diacid])FVNWLLAQKG-OH) |  |  | ≥ 15 mg/mL | ≥ 30 mg/mL |
| CC[C@H](C)[C@H](NC(=O)[C@H](CO)NC(=O)[C@H](Cc1ccc(O)cc1)NC(=O)[C@H](CC(=O)O)NC(=O)[C@H](CO)NC(=O)[C@@H](NC(=O)[C@H](Cc1ccccc1)NC(=O)[C@@H](NC(=O)CNC(=O)[C@H](CCC(=O)O)NC(=O)C(C)(C)NC(=O)[C@H](Cc1ccc(O)cc1)NC)[C@@H](C)O)[C@@H](C)CC)C(=O)N[C@@H](C)C(=O)N[C@@H](CC(C)C)C(=O)N[C@@H](CC(=O)O)C(=O)N[C@@H](CCCNC(=N)N)C(=O)NC(C)(C)C(=O)N[C@@H](CCCCNC(=O)COCCOCCNC(=O)COCCOCCNC(=O)CC[C@H](NC(=O)CC[C@H](NC(=O)CCCCCCCCCCCCCCCCCCC(=O)O)C(=O)O)C(=O)O)C(=O)N[C@@H](CCC(N)=O)C(=O)NC(C)(C)C(=O)N[C@@H](CC(N)=O)C(=O)N[C@@H](Cc1ccccc1)C(=O)N[C@H](C(=O)N[C@@H](CC(N)=O)C(=O)N[C@@H](Cc1c[nH]c2ccccc12)C(=O)N[C@@H](CC(C)C)C(=O)N[C@@H](CC(C)C)C(=O)N[C@@H](C)C(=O)N[C@@H](CCC(N)=O)C(=O)N[C@@H](CO)C(=O)N1CCC[C@H]1C(=O)N[C@@H](CO)C(=O)N[C@@H](CO)C(=O)NCC(=O)N[C@@H](C)C(=O)N1CCC[C@H]1C(=O)N1CCC[C@H]1C(=O)N1CCC[C@H]1C(=O)N[C@@H](CO)C(N)=O)C(C)C [Compound 68] (H-[NMeY][Aib]EGTFISDYSIALDR[Aib]K([AEEA-AEEA-γGlu-γGlu-C20 diacid])Q[Aib]NFVNWLLAQSPSSGAPPPS-NH2) |  | ≥ 15 mg/mL |  |  |
| CC[C@H](C)[C@H](NC(=O)[C@H](Cc1ccccc1)NC(=O)[C@@H](NC(=O)CNC(=O)[C@H](CCC(=O)O)NC(=O)C(C)(C)NC(=O)[C@H](Cc1ccc(O)cc1)NC)[C@@H](C)O)C(=O)N[C@@H](CO)C(=O)N[C@@H](CC(=O)O)C(=O)N[C@@H](Cc1ccc(O)cc1)C(=O)N[C@@H](CO)C(=O)N[C@H](C(=O)NC(C)(C)C(=O)N[C@@H](CC(C)C)C(=O)N[C@@H](CC(=O)O)C(=O)N[C@@H](CCCNC(=N)N)C(=O)NC(C)(C)C(=O)N[C@@H](CCCCNC(=O)COCCOCCNC(=O)COCCOCCNC(=O)CC[C@H](NC(=O)CC[C@H](NC(=O)CCCCCCCCCCCCCCCCC(=O)O)C(=O)O)C(=O)O)C(=O)N[C@@H](CCC(N)=O)C(=O)NC(C)(C)C(=O)N[C@@H](CC(=O)O)C(=O)N[C@@H](Cc1ccccc1)C(=O)N[C@H](C(=O)N[C@@H](CC(N)=O)C(=O)N[C@@H](Cc1c[nH]c2ccccc12)C(=O)N[C@@H](CC(C)C)C(=O)N[C@@H](CC(C)C)C(=O)N[C@@H](C)C(=O)N[C@@H](CCC(N)=O)C(=O)N[C@@H](CCCNC(=N)N)C(=O)NCC(=O)O)C(C)C)[C@@H](C)CC [Compound 73] (H-[NMeY][Aib]EGTFISDYSI[Aib]LDR[Aib]K([AEEA-AEEA-γGlu-γGlu-C18 diacid])Q[Aib]DFVNWLLAQRG-OH) |  |  | ≥ 15 mg/mL | ≥ 30 mg/mL |
